In brackets after ≈: the same amount, converted by molar mass.
How the values were obtained:
Format in all cases: functional
[1] = system: Staphylococcus aureus; assay: Potency index, ratio of MIC for norfloxacin to MIC for compound against quinolone-resistant Staphylococcus aureus CCARM 3505 incubated for 24 hrs serial dilution method
[2] = system: Staphylococcus aureus; assay: Antibacterial activity against Staphylococcus aureus KCTC 503 incubated for 24 hrs serial dilution method; conditions: KCTC 503, 24 h
[3] = system: Staphylococcus aureus; assay: Antibacterial activity against Staphylococcus aureus KCTC 209 incubated for 24 hrs serial dilution method; conditions: KCTC 209, 24 h
[4] = system: Staphylococcus aureus; assay: Antibacterial activity against quinolone-resistant Staphylococcus aureus CCARM 3519 incubated for 24 hrs serial dilution method; conditions: CCARM 3519, 24 h
[5] = system: Staphylococcus aureus; assay: Potency index, ratio of MIC for norfloxacin to MIC for compound against quinolone-resistant Staphylococcus aureus CCARM 3519 incubated for 24 hrs serial dilution method
[6] = system: Staphylococcus aureus; assay: Potency index, ratio of MIC for norfloxacin to MIC for compound against multidrug-resistant Staphylococcus aureus CCARM 3167 incubated for 24 hrs serial dilution method
[7] = system: Staphylococcus aureus; assay: Potency index, ratio of MIC for norfloxacin to MIC for compound against multidrug-resistant Staphylococcus aureus CCARM 3506 incubated for 24 hrs serial dilution method
[8] = system: Staphylococcus aureus; assay: Antibacterial activity against quinolone-resistant Staphylococcus aureus CCARM 3505 incubated for 24 hrs serial dilution method; conditions: CCARM 3505, 24 h
[9] = system: Staphylococcus aureus; assay: Antibacterial activity against multidrug-resistant Staphylococcus aureus CCARM 3506 incubated for 24 hrs serial dilution method; conditions: CCARM 3506, 24 h
[10] = system: Escherichia coli; assay: Antibacterial activity against Escherichia coli 1356 incubated for 24 hrs serial dilution method; conditions: Escherichia coli, 1356, 24 h
[11] = system: Staphylococcus aureus; assay: Antibacterial activity against multidrug-resistant Staphylococcus aureus CCARM 3167 incubated for 24 hrs serial dilution method; conditions: CCARM 3167, 24 h
[12] = system: Staphylococcus aureus; assay: Antibacterial activity against Staphylococcus aureus RN 4220 incubated for 24 hrs serial dilution method; conditions: RN 4220, 24 h

| Structure (SMILES) | Ratio [1] | MIC [2] [mg/L] | MIC [3] [mg/L] | MIC [4] [mg/L] | Ratio [5] | Ratio [6] | Ratio [7] | MIC [8] [mg/L] | MIC [9] [mg/L] | MIC [10] [mg/L] | MIC [11] [mg/L] | MIC [12] [mg/L] |
| --- | --- | --- | --- | --- | --- | --- | --- | --- | --- | --- | --- | --- |
| Cc1cccc(Oc2c(/C=C3\SC(=S)N([C@@H](Cc4ccccc4)C(=O)O)C3=O)c(C)nn2-c2ccccc2)c1 | 4 | > 64 | > 64 | 8 (≈ 14.4 µM) | 4 | 2 | 2 | 4 (≈ 7.2 µM) | 4 (≈ 7.2 µM) | > 64 | 4 (≈ 7.2 µM) | 4 (≈ 7.2 µM) |
| Cc1nn(-c2ccccc2)c(Oc2ccc3ccccc3c2)c1/C=C1\SC(=S)N([C@@H](Cc2ccccc2)C(=O)O)C1=O | 4 | > 64 | > 64 | 2 (≈ 3.38 µM) | 4 | 2 | 2 | 2 (≈ 3.38 µM) | 2 (≈ 3.38 µM) | > 64 | 2 (≈ 3.38 µM) | 2 (≈ 3.38 µM) |
| Cc1nn(-c2ccccc2)c(Oc2c(Cl)cccc2Cl)c1/C=C1\SC(=S)N([C@@H](Cc2ccccc2)C(=O)O)C1=O | 4 | > 64 | > 64 | 8 (≈ 13.1 µM) | 4 | 2 | 2 | 8 (≈ 13.1 µM) | 8 (≈ 13.1 µM) | > 64 | 4 (≈ 6.55 µM) | 4 (≈ 6.55 µM) |
| Cc1nn(-c2ccccc2)c(Oc2ccc(Cl)cc2)c1/C=C1\SC(=S)N([C@@H](Cc2ccccc2)C(=O)O)C1=O | 4 | > 64 | > 64 | 4 (≈ 6.94 µM) | 4 | 2 | 2 | 4 (≈ 6.94 µM) | 4 (≈ 6.94 µM) | > 64 | 2 (≈ 3.47 µM) | 4 (≈ 6.94 µM) |
| COc1ccccc1Oc1c(/C=C2\SC(=S)N([C@@H](Cc3ccccc3)C(=O)O)C2=O)c(C)nn1-c1ccccc1 | 4 | > 64 | > 64 | 8 (≈ 14 µM) | 4 | 2 | 2 | 8 (≈ 14 µM) | 8 (≈ 14 µM) | > 64 | 8 (≈ 14 µM) | 16 (≈ 28 µM) |
| Cc1ccccc1Oc1c(/C=C2\SC(=S)N([C@@H](Cc3ccccc3)C(=O)O)C2=O)c(C)nn1-c1ccccc1 | 4 | > 64 | > 64 | 8 (≈ 14.4 µM) | 4 | 2 | 2 | 8 (≈ 14.4 µM) | 8 (≈ 14.4 µM) | > 64 | 4 (≈ 7.2 µM) | 4 (≈ 7.2 µM) |
| COc1ccc(Oc2c(/C=C3\SC(=S)N([C@@H](Cc4ccccc4)C(=O)O)C3=O)c(C)nn2-c2ccccc2)cc1 | 4 | > 64 | > 64 | 8 (≈ 14 µM) | 4 | 2 | 2 | 8 (≈ 14 µM) | 4 (≈ 7 µM) | > 64 | 4 (≈ 7 µM) | 8 (≈ 14 µM) |
| Cc1nn(-c2ccccc2)c(Oc2cccc(C(F)(F)F)c2)c1/C=C1\SC(=S)N([C@@H](Cc2ccccc2)C(=O)O)C1=O | 4 | > 64 | > 64 | 8 (≈ 13.1 µM) | 4 | 2 | 2 | 4 (≈ 6.56 µM) | 4 (≈ 6.56 µM) | > 64 | 4 (≈ 6.56 µM) | 4 (≈ 6.56 µM) |
| Cc1nn(-c2ccccc2)c(Oc2cccc(Cl)c2)c1/C=C1\SC(=S)N([C@@H](Cc2ccccc2)C(=O)O)C1=O | 4 | > 64 | > 64 | 8 (≈ 13.9 µM) | 4 | 2 | 2 | 4 (≈ 6.94 µM) | 4 (≈ 6.94 µM) | > 64 | 4 (≈ 6.94 µM) | 4 (≈ 6.94 µM) |
| COc1ccccc1Oc1c(/C=C2\SC(=S)N([C@@H](Cc3c[nH]c4ccccc34)C(=O)O)C2=O)c(C)nn1-c1ccccc1 | – | > 64 | > 64 | 8 (≈ 13.1 µM) | – | – | – | 8 (≈ 13.1 µM) | 8 (≈ 13.1 µM) | > 64 | 8 (≈ 13.1 µM) | 16 (≈ 26.2 µM) |
| COc1ccc(Oc2c(/C=C3\SC(=S)N([C@@H](Cc4c[nH]c5ccccc45)C(=O)O)C3=O)c(C)nn2-c2ccccc2)cc1 | – | > 64 | > 64 | 8 (≈ 13.1 µM) | – | – | – | 8 (≈ 13.1 µM) | 4 (≈ 6.55 µM) | > 64 | 4 (≈ 6.55 µM) | 8 (≈ 13.1 µM) |
| Cc1nn(-c2ccccc2)c(Oc2cccc(C(F)(F)F)c2)c1/C=C1\SC(=S)N([C@@H](Cc2c[nH]c3ccccc23)C(=O)O)C1=O | – | > 64 | > 64 | 8 (≈ 12.3 µM) | – | – | – | 4 (≈ 6.17 µM) | 4 (≈ 6.17 µM) | > 64 | 4 (≈ 6.17 µM) | 4 (≈ 6.17 µM) |
| Cc1ccc(Oc2c(/C=C3\SC(=S)N([C@@H](Cc4ccccc4)C(=O)O)C3=O)c(C)nn2-c2ccccc2)c(C)c1 | 4 | > 64 | > 64 | 2 (≈ 3.51 µM) | 4 | 2 | 2 | 2 (≈ 3.51 µM) | 2 (≈ 3.51 µM) | > 64 | 2 (≈ 3.51 µM) | 2 (≈ 3.51 µM) |
| Cc1nn(-c2ccccc2)c(Oc2ccc(Br)cc2)c1/C=C1\SC(=S)N([C@@H](Cc2ccccc2)C(=O)O)C1=O | 4 | > 64 | > 64 | 2 (≈ 3.22 µM) | 4 | 2 | 2 | 2 (≈ 3.22 µM) | 2 (≈ 3.22 µM) | > 64 | 2 (≈ 3.22 µM) | 2 (≈ 3.22 µM) |
| Cc1cccc(Oc2c(/C=C3\SC(=S)N([C@@H](Cc4c[nH]c5ccccc45)C(=O)O)C3=O)c(C)nn2-c2ccccc2)c1 | – | > 64 | > 64 | 8 (≈ 13.5 µM) | – | – | – | 8 (≈ 13.5 µM) | 4 (≈ 6.73 µM) | > 64 | 4 (≈ 6.73 µM) | 4 (≈ 6.73 µM) |
| Cc1ccccc1Oc1c(/C=C2\SC(=S)N([C@@H](Cc3c[nH]c4ccccc34)C(=O)O)C2=O)c(C)nn1-c1ccccc1 | – | > 64 | > 64 | 8 (≈ 13.5 µM) | – | – | – | 8 (≈ 13.5 µM) | 4 (≈ 6.73 µM) | > 64 | 2 (≈ 3.36 µM) | 8 (≈ 13.5 µM) |
| Cc1nn(-c2ccccc2)c(Oc2ccc(Cl)cc2)c1/C=C1\SC(=S)N([C@@H](Cc2c[nH]c3ccccc23)C(=O)O)C1=O | – | > 64 | > 64 | 2 (≈ 3.25 µM) | – | – | – | 2 (≈ 3.25 µM) | 2 (≈ 3.25 µM) | > 64 | 2 (≈ 3.25 µM) | 2 (≈ 3.25 µM) |
